PMC8443696, “Structural determinants and regulation of spontaneous activity in GABAA receptors” (Nature Communications, 2021)
Where “and” joins values, the source holds several entries; their conditions need not be identical. Equal values may be shown once.

Assays:
α4β2δ receptor = test system: T1, α4β2δ receptor; assay: Quantification of spontaneous activity (Ispont) in HEK cells, whole-cell patch clamp; type: cell-based, mouse
T1 construct: expressed in transfected cells; host or cells: HEK 293
Source text: All components were obtained from Life Technologies.
Currents were acquired with Clampex ver.
Cells were voltage clamped at −40 mV.
For assessment of the efficacy of allosteric modulators on spontaneous activity, compounds were briefly applied (3–5 s) to achieve steady-state currents (IMod). […] The IMod was summed with IPTX (or subtracted for inhibitory modulators) and the Ispont calculated, as described by Eq. (2):2 Ispont(%)=[(IPTX+IMod)/(IPTX+IMax)]×100……………………………………

α4β3δ GABAARs = test system: T2, α4β3δ GABAARs; assay: Single-channel recording of spontaneous currents, outside-out patches of HEK cells; type: cell-based, mouse; settings: 100 nM THDOC, absence of GABA, individual patches
T2 construct: expressed in transfected cells; host or cells: HEK cells (outside-out patches)
Procedure: To limit ion channel density in individual patches, HEK cells were transfected with 5 ng α4, β3, δ and eGFP cDNAs. Resulting spontaneous single-channel currents were digitised at a sampling rate of 20 kHz and filtered at 5 kHz with a 4-pole Bessel filter (24 dB per octave). A fixed time resolution of 80 μs was used as a preset. Recordings were undertaken using thick-walled borosilicate patch pipettes (6–10 MΩ) filled with a solution containing (mM): 145 CsCl, 2.5 NaCl, 10 HEPES, 1 EGTA, 4 MgATP, pH 7.3. Osmolarity was 300 ± 20 mOsm/L. Cells were perfused with an external solution consisting of (mM): 145 NaCl, 2.5 KCl, 1 CaCl2, 1 MgCl2, 10 HEPES, 10 glucose, pH 7.3. Prior control recordings were obtained using untransfected HEK cells to identify endogenous channel currents.
Channel currents were digitally low pass filtered at 1–2 kHz prior to analysis. […] Channel dwell states were identified using a threshold cursor method. This state transition detection method for open and shut events was used to assemble an idealised record of the digitised data. Open times affected by channel stacking were not included in the analyses and sub-conductance states were also rare and excluded from the analysis.
The analysis of the dwell times for single-channel currents was performed by fitting a mixture of exponential components to the open time distributions. These defined the mean open times and their relative proportions (area of the components) based on using a Levenberg-Marquardt non-linear least-squares routine (WinEDR ver 3.8.7, courtesy of J Dempster, University of Strathclyde).

| SMILES | Ispont in the presence of modulator (α4β2δ receptor; AP 100 nM (Fig. 6b), listed as AP) | Area A1 of open time distribution (row head printed 'thdoc t2', r12) (α4β3δ GABAARs) | Area A2 of open time distribution (thdoc t2, r14) (α4β3δ GABAARs) | Area A1 of open time distribution (row head printed 'thdoc t2', r12) (α4β3δ GABAARs; listed as thdoc) | Area A2 of open time distribution (thdoc t2, r14) (α4β3δ GABAARs; listed as thdoc) | Ispont in the presence of modulator (α4β2δ receptor; THDOC 100 nM (Fig. 6b)) |
| --- | --- | --- | --- | --- | --- | --- |
| CC(=O)[C@H]1CC[C@H]2[C@@H]3CC[C@H]4C[C@H](O)CC[C@]4(C)[C@H]3CC[C@]12C [allopregnanolone] | 0% and 0.09895% and 0.3946% | – | – | – | – | – |
| C[C@]12CC[C@@H](O)C[C@H]1CC[C@@H]1[C@@H]2CC[C@]2(C)[C@@H](C(=O)CO)CC[C@@H]12 [THDOC, tetrahydro-deoxycorticosterone] | – | did not significantly affect | did not significantly affect | 7.49E+01 and 60.19 and 6.51E+01 and 8.65E+01 and 4.84E+01 and 64.73 and 86.6 and 77.97 and 79.7 and 73.6 | 25.1 and 39.81 and 34.92 and 13.51 and 51.6 and 35.27 and 13.4 and 22.03 and 20.3 and 26.4 | 0% and 0.09895% and 0.3365% |
